Measured values reported in publication PMC5750218, “Protein-inspired antibiotics active against vancomycin- and daptomycin-resistant bacteria” (Nature Communications, 2018).
In brackets after ≈: the same amount, converted by molar mass. Several values for one entry are separate records, joined by “and”; a condition that tells them apart may be missing. Equal entries are not always repeated. Positions of bridges follow the written chain, without caps; N, C: chain ends. Residues, ends and D or L forms follow the SMILES beside them. Chains are numbered I, II in the order given. *: point of attachment. Myristoyl = CCCCCCCCCCCCCC(=O)*

Key:
Experiment in all cases: microbe, parasite or virus in culture
[1] = tested on: Methicillin-resistant S. aureus ATCC 43300
Description: (§1) Antimicrobial activity of compounds was tested against a number of bacterial strains by broth microdilution (BMD) assay with MIC determination, including S. aureus (MSSA ATCC® 29213™, MRSA ATCC® 43300™, VISA NARSA NRS1, VISA NARSA NRS4), Streptococcus pneumoniae (MDR ATCC® 700677™) and Enterococcus faecium (MDR VanA ATCC® 51559™). ATCC strains were sourced from the American Type Culture Collection and NRS strains from NARSA (Network on Antimicrobial Resistance in S. aureus) via BEI Resources (www.beiresources.org). All compounds were prepared to 160 µg mL^−1 solution in water from a stock solution of 1 mM concentration.
[…] […] Standards ranged from 64 to 0.03 µg mL^−1 and compounds from 8 to 0.003 µg mL^−1 with final assay volumes of 100 µL per well. Gram-positive bacteria were cultured in Mueller Hinton broth (MHB) (Bactolaboratories, Cat. no. 211443) at 37 °C overnight. A sample of each culture was then diluted 40-fold in fresh MHB and incubated at 37 °C for 2–3 h. […] All the plates were covered and incubated at 37 °C for 24 h. MICs were the lowest concentration showing no visible growth.

[2] = tested on: Vancomycin-resistant (VanA) Enterococcus faecium ATCC 51559
Description: as §1
(§2) The compounds, along with standard antibiotics were serially diluted twofold across the wells of 96-well non-binding surface (NBS) polystyrene plates (Corning 3641). […] Standards ranged from 64 to 0.03 µg mL^−1 and compounds from 8 to 0.003 µg mL^−1 with final assay volumes of 100 µL per well. Gram-positive bacteria were cultured in Mueller Hinton broth (MHB) (Bactolaboratories, Cat. no. 211443) at 37 °C overnight. A sample of each culture was then diluted 40-fold in fresh MHB and incubated at 37 °C for 2–3 h. […] All the plates were covered and incubated at 37 °C for 24 h. MICs were the lowest concentration showing no visible growth.

[3] = tested on: Multi-drug-resistant S. pneumoniae ATCC 700677
Description: as §1, §2

[4] = tested on: Vancomycin-intermediate S. aureus NRS1
Description: as §1, §2

| Molecule | MIC MRSA ([1]; ATCC 43300, 24 h) [µg/mL] | MIC VRE ([2]; ATCC 51559) [µg/mL] | MIC MDR S.P. ([3]; ATCC 700677) [µg/mL] | MIC VISA ([4]; Vancomycin-intermediate NRS1) [µg/mL] | MIC MRSA ([1]; S. aureus ATCC 43300, NBS plates, MHB, 24 h, substance alone) | MIC MDR S.P. ([3]; S. pneumoniae ATCC 700677) | MIC VRE ([2]; E. faecium MDR VanA ATCC 51559, substance alone) [µg/mL] | MIC VISA ([4]; S. aureus NRS1) |
| --- | --- | --- | --- | --- | --- | --- | --- | --- |
| CCCCCCCCCCCCCC(=O)N[C@@H](CCCCN)C(=O)N[C@@H](CCCCN)C(=O)N[C@@H](CCCCN)C(=O)N[C@@H](CSSC[C@H](NC(=O)[C@H](CCCCN)NC(=O)[C@H](CCCCN)NC(=O)[C@H](CCCCN)NC(=O)CCCCCCCCCCCCC)C(=O)O)C(=O)O [Compound 15a, Myristoyl-KKKC-OH – disulphide dimer] (I: Myristoyl-KKKC-OH / II: Myristoyl-KKKC-OH; disulfide I:4-II:4) | >8 | >8 |  |  |  |  |  |  |
| CNC(=O)[C@H](CCCCNC(=O)[C@H]1NC(=O)[C@H]2NC(=O)[C@H](NC(=O)[C@@H]3NC(=O)[C@H](CC(N)=O)NC(=O)[C@H](NC(=O)[C@@H](CC(C)C)NC)[C@H](O)c4ccc(c(Cl)c4)Oc4cc3cc(c4O[C@@H]3O[C@H](CO)[C@@H](O)[C@H](O)[C@H]3O[C@H]3C[C@](C)(N)[C@H](O)[C@H](C)O3)Oc3ccc(cc3Cl)[C@H]2O)c2ccc(O)c(c2)-c2c(O)cc(O)cc21)NC(=O)[C@H](CCCCN)NC(=O)[C@@H](CCCCN)NC(=O)[C@H](CCCCNC(=O)c1ccc(Oc2ccccc2)cc1)NC(=O)c1ccc(Oc2ccccc2)cc1 [Compound 26] | <0.003 | 1.5 (≈ 0.634 µM) | <0.003 | 0.19 (≈ 0.0803 µM) |  |  |  |  |
| CNC(=O)[C@H](CCCCNC(=O)[C@H]1NC(=O)[C@H]2NC(=O)[C@H](NC(=O)[C@@H]3NC(=O)[C@H](CC(N)=O)NC(=O)[C@H](NC(=O)[C@@H](CC(C)C)NC)[C@H](O)c4ccc(c(Cl)c4)Oc4cc3cc(c4O[C@@H]3O[C@H](CO)[C@@H](O)[C@H](O)[C@H]3O[C@H]3C[C@](C)(N)[C@H](O)[C@H](C)O3)Oc3ccc(cc3Cl)[C@H]2O)c2ccc(O)c(c2)-c2c(O)cc(O)cc21)NC(=O)[C@H](CCCN)NC(=O)[C@H](CCCCN)NC(=O)[C@H](CCCCNC(=O)c1ccc(Oc2ccccc2)cc1)NC(=O)c1ccc(Oc2ccccc2)cc1 [Compound 32, POB2K-K-Orn-K(Vancomycin)-NHMe] | <0.003 | 1 (≈ 0.425 µM) | <0.003 | 0.0375 (≈ 0.0159 µM) |  |  |  |  |
| CCCCCCCCCCCCC(=O)N[C@@H](CCCCN)C(=O)N[C@@H](CCCCN)C(=O)N[C@@H](CCCCN)C(=O)N[C@@H](CCCCNC(=O)[C@H]1NC(=O)[C@H]2NC(=O)[C@H](NC(=O)[C@@H]3NC(=O)[C@H](CC(N)=O)NC(=O)[C@H](NC(=O)[C@@H](CC(C)C)NC)[C@H](O)c4ccc(c(Cl)c4)Oc4cc3cc(c4O[C@@H]3O[C@H](CO)[C@@H](O)[C@H](O)[C@H]3O[C@H]3C[C@](C)(N)[C@H](O)[C@H](C)O3)Oc3ccc(cc3Cl)[C@H]2O)c2ccc(O)c(c2)-c2c(O)cc(O)cc21)C(=O)O [Compound 38, nC12CO-KKK-K-(Vancomycin)-OH] | <0.003 | 0.1875 (≈ 0.0869 µM) | <0.003 | 0.03 (≈ 0.0139 µM) |  |  |  |  |
| CNC(=O)[C@H](CCCCNC(=O)[C@H]1NC(=O)[C@H]2NC(=O)[C@H](NC(=O)[C@@H]3NC(=O)[C@H](CC(N)=O)NC(=O)[C@H](NC(=O)[C@@H](CC(C)C)NC)[C@H](O)c4ccc(c(Cl)c4)Oc4cc3cc(c4O[C@@H]3O[C@H](CO)[C@@H](O)[C@H](O)[C@H]3O[C@H]3C[C@](C)(N)[C@H](O)[C@H](C)O3)Oc3ccc(cc3Cl)[C@H]2O)c2ccc(O)c(c2)-c2c(O)cc(O)cc21)NC(=O)[C@H](CCCCN)NC(=O)[C@H](CCN)NC(=O)[C@H](CCCCNC(=O)c1ccc(Oc2ccccc2)cc1)NC(=O)c1ccc(Oc2ccccc2)cc1 [Compound 31, POB2K-Dab-K-K(Vancomycin)-NHMe] | <0.003 | 0.375 (≈ 0.16 µM) | <0.003 | 0.0925 (≈ 0.0395 µM) |  |  |  |  |
| POB2K-Dap-K-K(Vancomycin)-NHMe [Compound 28] |  |  |  |  | <0.003 µg/mL and 0.0045 µg/mL | 0.015 µg/mL and 0.011 µg/mL | 0.75 | 0.125 µg/mL and 0.155 µg/mL |
| CCCCCCCCCCCCCC(=O)NCC(=O)N[C@@H](CO)C(=O)N[C@@H](CCCCN)C(=O)N[C@@H](CCCCN)C(=O)N[C@@H](CCCCN)C(=O)N[C@@H](CS)C(=O)O [Compound 14a, Myristoyl-GSKKKC-OH] (Myristoyl-GSKKKC-OH) | >8 | >8 |  |  |  |  |  |  |
| CCCCCCCCCCCCCC(=O)NCC(=O)N[C@@H](CO)C(=O)N[C@@H](CO)C(=O)N[C@@H](CCCCN)C(=O)N[C@@H](CO)C(=O)N1CCC[C@H]1C(=O)N[C@@H](CO)C(=O)N[C@@H](CCCCN)C(=O)N[C@@H](CCCCN)C(=O)N[C@@H](CCCCN)C(=O)N1CCC[C@H]1C(=O)N[C@@H](CS)C(N)=O [Compound 12a] (Myristoyl-GSSKSPSKKKPC-NH2) | >8 | >8 |  |  |  |  |  |  |
| CNC(=O)[C@H](CCCCNC(=O)[C@H]1NC(=O)[C@H]2NC(=O)[C@H](NC(=O)[C@@H]3NC(=O)[C@H](CC(N)=O)NC(=O)[C@H](NC(=O)[C@@H](CC(C)C)NC)[C@H](O)c4ccc(c(Cl)c4)Oc4cc3cc(c4O[C@@H]3O[C@H](CO)[C@@H](O)[C@H](O)[C@H]3O[C@H]3C[C@](C)(N)[C@H](O)[C@H](C)O3)Oc3ccc(cc3Cl)[C@H]2O)c2ccc(O)c(c2)-c2c(O)cc(O)cc21)NC(=O)[C@H](CCCN)NC(=O)[C@H](CCCN)NC(=O)[C@H](CCCCNC(=O)c1ccc(Oc2ccccc2)cc1)NC(=O)c1ccc(Oc2ccccc2)cc1 [Compound 34, POB2K-Orn-Orn-K(Vancomycin)-NHMe] | <0.003 | 0.5 (≈ 0.214 µM) | <0.003 | 0.0185 (≈ 0.00791 µM) |  |  |  |  |
| CNC(=O)[C@H](CCCNC(=O)[C@H]1NC(=O)[C@H]2NC(=O)[C@H](NC(=O)[C@@H]3NC(=O)[C@H](CC(N)=O)NC(=O)[C@H](NC(=O)[C@@H](CC(C)C)NC)[C@H](O)c4ccc(c(Cl)c4)Oc4cc3cc(c4O[C@@H]3O[C@H](CO)[C@@H](O)[C@H](O)[C@H]3O[C@H]3C[C@](C)(N)[C@H](O)[C@H](C)O3)Oc3ccc(cc3Cl)[C@H]2O)c2ccc(O)c(c2)-c2c(O)cc(O)cc21)NC(=O)[C@H](CCCCN)NC(=O)[C@H](CCCCN)NC(=O)[C@H](CCCCNC(=O)c1ccc(Oc2ccccc2)cc1)NC(=O)c1ccc(Oc2ccccc2)cc1 [Compound 35, POB2K-KK-Orn(Vancomycin)-NHMe] | <0.003 | 1.25 (≈ 0.531 µM) | 0.005 (≈ 0.00212 µM) | 0.25 (≈ 0.106 µM) |  |  |  |  |
| CNC(=O)[C@H](CCCCNC(=O)[C@H]1NC(=O)[C@H]2NC(=O)[C@H](NC(=O)[C@@H]3NC(=O)[C@H](CC(N)=O)NC(=O)[C@H](NC(=O)[C@@H](CC(C)C)NC)[C@H](O)c4ccc(c(Cl)c4)Oc4cc3cc(c4O[C@@H]3O[C@H](CO)[C@@H](O)[C@H](O)[C@H]3O[C@H]3C[C@](C)(N)[C@H](O)[C@H](C)O3)Oc3ccc(cc3Cl)[C@H]2O)c2ccc(O)c(c2)-c2c(O)cc(O)cc21)NC(=O)[C@H](CCN)NC(=O)[C@H](CCCCN)NC(=O)[C@H](CCCCNC(=O)c1ccc(Oc2ccccc2)cc1)NC(=O)c1ccc(Oc2ccccc2)cc1 [Compound 30, POB2K-K-Dab-K(Vancomycin)-NHMe] | <0.003 | 0.75 (≈ 0.321 µM) | <0.003 | 0.0925 (≈ 0.0395 µM) |  |  |  |  |
| CCCCCCCCCCCCCC(=O)NCC(=O)N[C@@H](CO)C(=O)N[C@@H](CCCCN)C(=O)N[C@@H](CCCCN)C(=O)N[C@@H](CCCCN)C(=O)N[C@@H](CS)C(N)=O [Compound 13a, Myristoyl-GSKKKC-NH 2] (Myristoyl-GSKKKC-NH2) | >8 | >8 |  |  |  |  |  |  |
| CCCCCCCCCCCCCC(=O)NCC(=O)N[C@@H](CO)C(=O)N[C@@H](CO)C(=O)N[C@@H](CCCCN)C(=O)N[C@@H](CO)C(=O)N1CCC[C@H]1C(=O)N[C@@H](CO)C(=O)N[C@@H](CCCCN)C(=O)N[C@@H](CCCCN)C(=O)N[C@@H](CCCCN)C(=O)N[C@@H](CCCCN)C(=O)N[C@@H](CCCCN)C(=O)N[C@@H](CCCCN)C(=O)N1CCC[C@H]1C(=O)NCC(=O)N[C@@H](CC(=O)O)C(=O)N[C@@H](CS)C(N)=O [Compound 8a] (Myristoyl-GSSKSPSKKKKKKPGDC-NH2) | >8 | >8 |  |  |  |  |  |  |
